Test results as given in PMC9750858, “Rapid biosensor development using plant hormone receptors as reprogrammable scaffolds” (Nature Biotechnology, 2022).
Values joined by “and” are separate entries in the source; they are usually repeats but may differ in a detail not shown here. Identical values can stand only once.

Key:
[1] = tested on: PYR1-derived cannabinoid receptors (PYR1 mutants) binding HAB1; details: for selectivity of Y2H response of the sensor evolved for the ligand: PYR1^CBDA or PYR1^CP 47,497, all ligands tested at 25 µM; for cannabinoid concentration to which CB-S1 library clones respond (as low as): clones from shuffled library CB-S1
PYR1^WIN-M = biological target: T1, PYR1^WIN-M (Arabidopsis thaliana, UniProt O49686, A160I/D26G/E4G/F159A/H60P/K59Q/N90S/Y23H); assay: ELISA-like plate assay, immobilized PYR1^WIN-M, biotinylated ΔN-HAB1^T+; format: binding; details: replicates
T1 construct: made in house
T1 sequence (O49686 with tags, fused parts or gaps E4G/Y23H/D26G/K59Q/H60P/N90S/F159A/A160I): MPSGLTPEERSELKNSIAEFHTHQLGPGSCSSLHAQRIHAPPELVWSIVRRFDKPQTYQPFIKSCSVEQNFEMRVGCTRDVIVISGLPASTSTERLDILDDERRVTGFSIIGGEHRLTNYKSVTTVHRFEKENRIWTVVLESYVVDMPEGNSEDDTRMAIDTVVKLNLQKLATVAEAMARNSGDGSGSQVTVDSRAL

PYR1^PIRI = biological target: T2, PYR1^PIRI (Arabidopsis thaliana, UniProt O49686, A160T/E130G/F159T/K59R/N119S/S122Q/S92M/V174A); assay: Split NanoLuc luciferase complementation in yeast, NLuc^N-PYR1^PIRI/NLuc^C-HAB1; format: cell-based; details: Figure 4f(bottom), replicates
T2 construct: >PYR1-PIRI; expressed in transfected cells; host or cells: Saccharomyces cerevisiae BY4742
T2 sequence (O49686 other isoform, or with tags, fused parts or gaps K59R/S92M/N119S/S122Q/E130G/F159T/A160T/V174A): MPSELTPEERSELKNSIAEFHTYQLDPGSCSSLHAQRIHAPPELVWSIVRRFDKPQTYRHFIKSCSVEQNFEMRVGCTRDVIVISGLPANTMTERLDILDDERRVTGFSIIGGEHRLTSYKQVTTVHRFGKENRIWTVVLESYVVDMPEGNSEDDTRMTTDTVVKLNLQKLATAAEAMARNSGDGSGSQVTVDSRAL
T2 sequence (Q9CAJ0 179-511, further chain): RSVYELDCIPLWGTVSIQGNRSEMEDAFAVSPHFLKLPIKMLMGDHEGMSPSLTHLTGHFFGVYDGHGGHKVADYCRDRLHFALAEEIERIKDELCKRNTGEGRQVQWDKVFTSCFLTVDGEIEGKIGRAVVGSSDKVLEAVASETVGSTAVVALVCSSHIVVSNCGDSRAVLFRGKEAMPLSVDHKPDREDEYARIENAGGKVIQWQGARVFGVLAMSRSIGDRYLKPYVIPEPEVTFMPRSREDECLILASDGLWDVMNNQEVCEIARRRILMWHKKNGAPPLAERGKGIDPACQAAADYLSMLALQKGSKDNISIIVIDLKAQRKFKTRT

PYR1^DIAZI = PYR1^DIAZI (Arabidopsis thaliana, UniProt O49686, A160V/E8G/F108Y/F159G/L87M/M158V/V81Y); assay: Split NanoLuc luciferase complementation in yeast, NLuc^N-PYR1^DIAZI/NLuc^C-HAB1; format: cell-based; parameters: >PYR1-DIAZI; expressed in transfected cells; host or cells: Saccharomyces cerevisiae BY4742; details: Figure 4f(top), 3 replicates
PYR1^DIAZI, sequence (Q9CAJ0 179-511): as the sequence (Q9CAJ0 179-511, further chain) above
PYR1^DIAZI, sequence (O49686 other isoform, or with tags, fused parts or gaps E8G/V81Y/L87M/F108Y/M158V/F159G/A160V): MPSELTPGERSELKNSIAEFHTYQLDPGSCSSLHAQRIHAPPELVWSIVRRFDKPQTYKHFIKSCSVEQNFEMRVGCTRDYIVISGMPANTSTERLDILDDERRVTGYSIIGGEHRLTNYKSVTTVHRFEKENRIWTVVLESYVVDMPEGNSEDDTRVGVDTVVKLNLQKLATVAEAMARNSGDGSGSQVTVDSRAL

Structure (SMILES): C=C(C)[C@@H]1CCC(C)=C[C@H]1c1c(O)cc(CCCCC)c(C(=O)O)c1O [CBDA, cannabidiolic acid]
- selectivity of Y2H response of the sensor evolved for the ligand [1]: selectively responds

Structure (SMILES): CCCCCCC(C)(C)c1ccc(C2CCCC(O)C2)c(O)c1 (centres unmarked) [CP 47,497, cannabicyclohexanol]
- ELISA signal generation, receptor cross-reactivity (source data) (PYR1^WIN-M; cannabinoid at 2 nM, 497): 0.117 and 0.142 and 0.12
- ELISA signal generation, receptor cross-reactivity (source data) (PYR1^WIN-M; cannabinoid at 2 μM, 497): 0.105 (2×) and 0.078
- selectivity of Y2H response of the sensor evolved for the ligand [1]: selectively responds

Structure (SMILES): CCCn1c(C)c(C(=O)c2cccc3ccccc23)c2ccccc21 [JWH-015]
- cannabinoid concentration to which CB-S1 library clones respond (as low as) [1]: 100 nM

Structure (SMILES): CCCCn1c(C)c(C(=O)c2cccc3ccccc23)c2ccccc21 [JWH-016]
- cannabinoid concentration to which CB-S1 library clones respond (as low as) [1]: 50 nM

Structure (SMILES): CCCCCn1cc(C(=O)c2cccc3ccccc23)c2ccccc21 [JWH-018]
- cannabinoid concentration to which CB-S1 library clones respond (as low as) [1]: 500 nM

Structure (SMILES): CCCn1cc(C(=O)c2cccc3ccccc23)c2ccccc21 [JWH-072]
- ELISA signal generation, receptor cross-reactivity (source data) (PYR1^WIN-M; cannabinoid at 2 nM): 0.289 and 0.097 and 0.074
- ELISA signal generation, receptor cross-reactivity (source data) (PYR1^WIN-M; cannabinoid at 2 μM): 0.219 and 0.29 and 0.268
- cannabinoid concentration to which CB-S1 library clones respond (as low as) [1]: 50 nM

Structure (SMILES): COP(=S)(OC)Oc1ccc([N+](=O)[O-])cc1 [Parathion-methyl, parathion-methyl]
- Sensor signal (Figure 4f bottom), replicate values (PYR1^PIRI; [Agonist] 1e-5 nM): 11.8454 and 17.8157 and 9.952
- Sensor signal (Figure 4f bottom), replicate values (PYR1^PIRI; [Agonist] 0.5 nM): 11.1865 and 13.661 and 9.612
- Sensor signal (Figure 4f bottom), replicate values (PYR1^PIRI; [Agonist] 1 nM): 11.9354 and 18.4849 and 9.205
- Sensor signal (Figure 4f bottom), replicate values (PYR1^PIRI; [Agonist] 10 nM): 10.4509 and 13.1415 and 9.783
- Sensor signal (Figure 4f bottom), replicate values (PYR1^PIRI; [Agonist] 100 nM): 9.423 and 12.7271 and 15.286
- Sensor signal (Figure 4f bottom), replicate values (PYR1^PIRI; [Agonist] 1000 nM): 9.542 and 20.0758 and 23.4336
- Sensor signal (Figure 4f bottom), replicate values (PYR1^PIRI; [Agonist] 10000 nM): 13.1296 and 21.6675 and 76.706
- Sensor signal (Figure 4f bottom), replicate values (PYR1^PIRI; [Agonist] 100000 nM): 11.2909 and 29.034 and 72.4977
- Sensor signal (Figure 4f top), replicate values (PYR1^DIAZI; [Agonist] 1e-5 nM): 15.0369 and 11.1106 and 15.282
- Sensor signal (Figure 4f top), replicate values (PYR1^DIAZI; [Agonist] 0.5 nM): 71.449 and 15.1942 and 16.4674
- Sensor signal (Figure 4f top), replicate values (PYR1^DIAZI; [Agonist] 1 nM): 69.4998 and 48.0045 and 15.815
- Sensor signal (Figure 4f top), replicate values (PYR1^DIAZI; [Agonist] 10 nM): 30.1106 and 67.3607 and 15.8069
- Sensor signal (Figure 4f top), replicate values (PYR1^DIAZI; [Agonist] 100 nM): 15.5477 and 62.6829 and 17.0922
- Sensor signal (Figure 4f top), replicate values (PYR1^DIAZI; [Agonist] 1000 nM): 34.4735 and 76.5381 and 29.0859
- Sensor signal (Figure 4f top), replicate values (PYR1^DIAZI; [Agonist] 10000 nM): 73.5456 and 54.5583 and 65.8713
- Sensor signal (Figure 4f top), replicate values (PYR1^DIAZI; [Agonist] 100000 nM): 78.279 and 10.2013 and 20.8749
